Measurements: ChEMBL document CHEMBL2321862, “Development and evaluation of novel phosphotyrosine mimetic inhibitors targeting the Src homology 2 domain of signaling lymphocytic activation molecule (SLAM) associated protein” (J Med Chem, 2013)
Activity calls are given as the source filed them. No rule for the calls is given here.

How the values were obtained:
[1] = target: T1, SH2 domain-containing protein 1A (Homo sapiens) (UniProt O60880); experiment: Inhibition of recombinant 6-His-tagged SLAM associated protein SH2 domain (unknown origin) expressed in Escherichia coli BL21(DE3) binding to biotinyl-KKSLTIpYAQVQK-NH2 attached to NeutrAvidin-coated plates using p-nitrophenyl phosphate as substrate at 10 uM after 1 hr relative to control
T1 sequence (whole entry): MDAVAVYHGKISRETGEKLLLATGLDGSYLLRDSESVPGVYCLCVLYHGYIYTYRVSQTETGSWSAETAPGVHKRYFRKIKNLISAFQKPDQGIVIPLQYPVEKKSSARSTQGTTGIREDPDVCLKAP

[2] = target: T1, SH2 domain-containing protein 1A (Homo sapiens); experiment: Inhibition of recombinant 6-His-tagged SLAM associated protein SH2 domain (unknown origin) expressed in Escherichia coli BL21(DE3) binding to biotinyl-KKSLTIpYAQVQK-NH2 attached to NeutrAvidin-coated plates using p-nitrophenyl phosphate as substrate at 100 uM after 1 hr

Row | fold change (FC) [1] | inhibition [2] | SMILES
1 | 0.89 | Active | COC(=O)[C@H](Cc1ccc2c(c1)COP(=O)(O)O2)NC(=O)[C@H](C)NC(=O)OCC1c2ccccc2-c2ccccc21
2 | 0.95 | Active | COC(=O)[C@H](Cc1ccc2c(c1)COP(=O)(O)O2)NC(=O)[C@H](CCC(=O)O)NC(=O)OCC1c2ccccc2-c2ccccc21
3 | 1.07 | Active | NC(=O)CNC(=O)[C@H](Cc1ccc2c(c1)COP(=O)(O)O2)NC(=O)OCC1c2ccccc2-c2ccccc21
4 | 0.81 | Active | COC(=O)[C@H](Cc1ccc2c(c1)COP(=O)(O)O2)NC(=O)[C@@H]1CCCN1C(=O)OCC1c2ccccc2-c2ccccc21
5 | 1.24 | Active | CC(C)(C)OC(=O)C[C@H](NC(=O)[C@H](Cc1ccc2c(c1)COP(=O)(O)O2)NC(=O)OCC1c2ccccc2-c2ccccc21)C(N)=O
6 | 0.9 | Active | NC(=O)[C@H](CO)NC(=O)[C@H](Cc1ccc2c(c1)COP(=O)(O)O2)NC(=O)OCC1c2ccccc2-c2ccccc21
7 | 0.82 | Active | COC(=O)[C@H](Cc1ccc2c(c1)COP(=O)(O)O2)NC(=O)[C@@H](NC(=O)OCC1c2ccccc2-c2ccccc21)[C@@H](C)O
8 | 1.29 | Active | COC(=O)[C@H](Cc1ccc2c(c1)COP(=O)(O)O2)NC(=O)[C@@H](NC(=O)OCC1c2ccccc2-c2ccccc21)C(C)C
9 | 1.03 | Active | NC(=O)[C@H](CC(=O)NC(c1ccccc1)(c1ccccc1)c1ccccc1)NC(=O)[C@H](Cc1ccc2c(c1)COP(=O)(O)O2)NC(=O)OCC1c2ccccc2-c2ccccc21
10 | 1.22 | Active | NCCCC[C@H](NC(=O)[C@H](Cc1ccc2c(c1)COP(=O)(O)O2)NC(=O)OCC1c2ccccc2-c2ccccc21)C(N)=O
11 | 0.75 | Active | COC(=O)[C@H](Cc1ccc2c(c1)COP(=O)(O)O2)NC(=O)[C@H](CCCNC(=N)NS(=O)(=O)c1c(C)c(C)c2c(c1C)CC(C)(C)O2)NC(=O)OCC1c2ccccc2-c2ccccc21
12 | 0.91 | Active | CSCC[C@H](NC(=O)[C@H](Cc1ccc2c(c1)COP(=O)(O)O2)NC(=O)OCC1c2ccccc2-c2ccccc21)C(N)=O
13 | 1.27 | Active | CC(C)(C)OC[C@H](NC(=O)[C@H](Cc1ccc2c(c1)COP(=O)(O)O2)NC(=O)OCC1c2ccccc2-c2ccccc21)C(N)=O
14 | 1.2 | Active | COC(=O)[C@H](Cc1ccc2c(c1)COP(=O)(O)O2)NC(=O)[C@H](Cc1cn(C(=O)OC(C)(C)C)c2ccccc12)NC(=O)OCC1c2ccccc2-c2ccccc21
15 | 0.85 | Active | COC(=O)[C@H](Cc1ccc2c(c1)COP(=O)(O)O2)NC(=O)[C@@H](NC(=O)OCC1c2ccccc2-c2ccccc21)[C@@H](C)OC(C)(C)C
16 | 1.11 | Active | COC(=O)[C@H](Cc1ccc2c(c1)COP(=O)(O)O2)NC(=O)[C@H](CCC(=O)NC(c1ccccc1)(c1ccccc1)c1ccccc1)NC(=O)OCC1c2ccccc2-c2ccccc21
17 | 1.1 | Active | COC(=O)[C@H](Cc1ccc2c(c1)COP(=O)(O)O2)NC(=O)[C@H](CCC(=O)OC(C)(C)C)NC(=O)OCC1c2ccccc2-c2ccccc21
18 | 0.85 | Active | COC(=O)[C@H](Cc1ccc2c(c1)COP(=O)(O)O2)NC(=O)[C@H](CCCCNC(=O)OC(C)(C)C)NC(=O)OCC1c2ccccc2-c2ccccc21
19 | 1.31 | Active | NC(=O)[C@H](CCC(=O)O)NC(=O)[C@H](Cc1ccc2c(c1)COP(=O)(O)O2)NC(=O)OCC1c2ccccc2-c2ccccc21
20 | 1.06 | Active | COC(=O)[C@H](Cc1ccc2c(c1)COP(=O)(O)O2)NC(=O)[C@H](CC(=O)NC(c1ccccc1)(c1ccccc1)c1ccccc1)NC(=O)OCC1c2ccccc2-c2ccccc21
21 | 0.84 | Active | COC(=O)[C@H](Cc1ccc2c(c1)COP(=O)(O)O2)NC(=O)[C@H](CC(=O)O)NC(=O)OCC1c2ccccc2-c2ccccc21
22 | 1.22 | Active | C[C@@H](O)[C@H](NC(=O)[C@H](Cc1ccc2c(c1)COP(=O)(O)O2)NC(=O)OCC1c2ccccc2-c2ccccc21)C(N)=O
23 | 1.09 | Active | C[C@H](NC(=O)[C@H](Cc1ccc2c(c1)COP(=O)(O)O2)NC(=O)OCC1c2ccccc2-c2ccccc21)C(N)=O
24 | 1.09 | Active | COC(=O)[C@H](Cc1ccc2c(c1)COP(=O)(O)O2)NC(=O)[C@H](CCC(N)=O)NC(=O)OCC1c2ccccc2-c2ccccc21

Row | fold change (FC) [1] | inhibition [2] | SMILES
25 | 1.13 | Active | C[C@@H](OC(C)(C)C)[C@H](NC(=O)[C@H](Cc1ccc2c(c1)COP(=O)(O)O2)NC(=O)OCC1c2ccccc2-c2ccccc21)C(N)=O
26 | 0.85 | Active | COC(=O)[C@H](Cc1ccc2c(c1)COP(=O)(O)O2)NC(=O)[C@H](CCSC)NC(=O)OCC1c2ccccc2-c2ccccc21
27 | 1.17 | Active | COC(=O)[C@H](Cc1ccc2c(c1)COP(=O)(O)O2)NC(=O)[C@H](CC(C)C)NC(=O)OCC1c2ccccc2-c2ccccc21
28 | 1.13 | Active | COC(=O)[C@H](Cc1ccc2c(c1)COP(=O)(O)O2)NC(=O)[C@H](CO)NC(=O)OCC1c2ccccc2-c2ccccc21
29 | 1 | Active | CC(C)[C@H](NC(=O)[C@H](Cc1ccc2c(c1)COP(=O)(O)O2)NC(=O)OCC1c2ccccc2-c2ccccc21)C(N)=O
30 | 1.05 | Active | CC[C@H](C)[C@H](NC(=O)[C@H](Cc1ccc2c(c1)COP(=O)(O)O2)NC(=O)OCC1c2ccccc2-c2ccccc21)C(N)=O
31 | 0.8 | Active | COC(=O)[C@H](Cc1ccc2c(c1)COP(=O)(O)O2)NC(=O)[C@H](CC(N)=O)NC(=O)OCC1c2ccccc2-c2ccccc21
32 | 0.96 | Active | COC(=O)[C@H](Cc1ccc2c(c1)COP(=O)(O)O2)NC(=O)[C@H](Cc1ccc(OC(C)(C)C)cc1)NC(=O)OCC1c2ccccc2-c2ccccc21
33 | 0.94 | Active | COC(=O)[C@H](Cc1ccc2c(c1)COP(=O)(O)O2)NC(=O)[C@H](Cc1c[nH]c2ccccc12)NC(=O)OCC1c2ccccc2-c2ccccc21
34 | 1.47 | Active | CC(C)(C)OC(=O)CC[C@H](NC(=O)[C@H](Cc1ccc2c(c1)COP(=O)(O)O2)NC(=O)OCC1c2ccccc2-c2ccccc21)C(N)=O
35 | 1.24 | Active | CC(C)(C)Oc1ccc(C[C@H](NC(=O)[C@H](Cc2ccc3c(c2)COP(=O)(O)O3)NC(=O)OCC2c3ccccc3-c3ccccc32)C(N)=O)cc1
36 | 0.95 | Active | NC(=O)[C@H](Cc1ccc(O)cc1)NC(=O)[C@H](Cc1ccc2c(c1)COP(=O)(O)O2)NC(=O)OCC1c2ccccc2-c2ccccc21
37 | 1.09 | Active | COC(=O)[C@H](Cc1ccc2c(c1)COP(=O)(O)O2)NC(=O)[C@H](Cc1ccc2c(c1)COP(=O)(O)O2)NC(=O)OCC1c2ccccc2-c2ccccc21
38 | 0.99 | Active | NC(=O)CC[C@H](NC(=O)[C@H](Cc1ccc2c(c1)COP(=O)(O)O2)NC(=O)OCC1c2ccccc2-c2ccccc21)C(N)=O
39 | 1.05 | Active | COC(=O)[C@H](Cc1ccc2c(c1)COP(=O)(O)O2)NC(=O)[C@H](Cc1ccc(O)cc1)NC(=O)OCC1c2ccccc2-c2ccccc21
40 | 0.89 | Active | COC(=O)[C@H](Cc1ccc2c(c1)COP(=O)(O)O2)NC(=O)[C@H](Cc1c[nH]cn1)NC(=O)OCC1c2ccccc2-c2ccccc21
41 | 0.94 | Active | Cc1c(C)c(S(=O)(=O)NC(=N)NCCC[C@H](NC(=O)[C@H](Cc2ccc3c(c2)COP(=O)(O)O3)NC(=O)OCC2c3ccccc3-c3ccccc32)C(N)=O)c(C)c2c1OC(C)(C)C2
42 | 1.33 | Active | CC(C)(C)OC(=O)n1cc(C[C@H](NC(=O)[C@H](Cc2ccc3c(c2)COP(=O)(O)O3)NC(=O)OCC2c3ccccc3-c3ccccc32)C(N)=O)c2ccccc21
43 | 1.36 | Active | NC(=O)[C@H](Cc1c[nH]c2ccccc12)NC(=O)[C@H](Cc1ccc2c(c1)COP(=O)(O)O2)NC(=O)OCC1c2ccccc2-c2ccccc21
44 | 1.06 | Active | COC(=O)[C@H](Cc1ccc2c(c1)COP(=O)(O)O2)NC(=O)[C@H](Cc1cn(C(c2ccccc2)(c2ccccc2)c2ccccc2)cn1)NC(=O)OCC1c2ccccc2-c2ccccc21
45 | 1.05 | Active | NC(=O)[C@@H]1CCCN1C(=O)[C@H](Cc1ccc2c(c1)COP(=O)(O)O2)NC(=O)OCC1c2ccccc2-c2ccccc21
46 | 0.77 | Active | COC(=O)[C@H](Cc1ccc2c(c1)COP(=O)(O)O2)NC(=O)CNC(=O)OCC1c2ccccc2-c2ccccc21
47 | 1.51 | Active | CC[C@H](C)[C@H](NC(=O)OCC1c2ccccc2-c2ccccc21)C(=O)N[C@@H](Cc1ccc2c(c1)COP(=O)(O)O2)C(=O)OC
48 | 1.07 | Active | NC(=O)[C@H](CCC(=O)NC(c1ccccc1)(c1ccccc1)c1ccccc1)NC(=O)[C@H](Cc1ccc2c(c1)COP(=O)(O)O2)NC(=O)OCC1c2ccccc2-c2ccccc21
